Experimental data from patent publication US20070232615A1, “Chemical Compounds” (priority 2004, published 2007).

Test system: HIV
Assay: HOS HIV infectivity assay (Table 2, strain not given)
Type: cell-based
Conditions: Human immunodeficiency virus 1, read-out: Activity Level
Experimental: HOS HIV-1 Infectivity Assay
Compounds were profiled against two HIV-1 viruses, the M-tropic (CCR5 utilizing) Ba-L strain and the T-tropic (CXCR4 utilizing) IIIB strain. Both viruses were propagated in human peripheral blood lymphocytes. Compounds were tested for there ability to block infection of the HOS cell line (expressing hCXCR4/hCCR5/hCD4/pHIV-LTR-luciferase) by either HIV-1 Ba-L or HIV-1 IIIB. Compound cytotoxicity was also examined in the absence of virus addition.
HOS HIV-1 Infectivity Assay Format
HOS cells (expressing hCXCR4/hCCR5/hCD4/pHIV-LTR-luciferase) were harvested and diluted in Dulbeccos modified Eagles media supplemented with 2% FCS and non-essential amino acid to a concentration of 60,000 cells/ml. The cells were plated into 96-well plates (100 ul per well) and the plates were placed in a tissue culture incubator (37° C.; 5% CO2/95% air) for a period of 24 h.
Subsequently, 50 ul of the desired drug solution (4 times the final concentration) was added to each well and the plates were returned to the tissue culture incubator (37° C.; 5% CO2/95% air) for 1 h. Following this incubation 50 ul of diluted virus was added to each well (approximately 2 million RLU per well of virus). The plates were returned to the tissue culture incubator (37° C.; 5% CO2/95% air) and were incubated for a further 96 h.
Following this incubation the endpoint for the virally infected cultures was quantified following addition of Steady-Glo Luciferase assay system reagent (Promega, Madison, Wis.). Cell viability or non-infected cultures was measured using a CellTiter-Glo luminescent cell viability assay system (Promega, Madison, Wis.). All luminescent readouts are performed on a Topcount luminescence detector (Packard, Meridien, Conn.).

| Structure (SMILES) | IC50 [nM] |
| --- | --- |
| CN(C)[C@@H]1CCN(c2cccc3nc(CN(C)[C@H]4CCCc5cccnc54)cn23)C1 [Example 83, (8S)—N-({5-[(3R)-3-(Dimethylamino)-1-pyrrolidinyl]imidazo[1,2-a]pyridin-2-yl}methyl)-N-methyl-5,6,7,8-tetrahydro-8-quinolinamine] | < 100 |
| CN(Cc1cn2c(N3CCCNCC3)cccc2n1)[C@H]1CCCc2cccnc21 [Example 84, (8S)—N-{[5-(Hexahydro-1H-1,4-diazepin-1-yl)imidazo[1,2-a]pyridin-2-yl]methyl}-N-methyl-5,6,7,8-tetrahydro-8-quinolinamine] | < 100 |
| CN1CCCN(c2cccc3nc(CN(C)[C@H]4CCCc5cccnc54)cn23)CC1 [Example 85, (8S)—N-Methyl-N-{[5-(4-methylhexahydro-1H-1,4-diazepin-1-yl)imidazo[1,2-a]pyridin-2-yl]methyl}-5,6,7,8-tetrahydro-8-quinolinamine] | < 100 |
| CN1CCC(N(C)c2cccc3nc(CN(C)[C@H]4CCCc5cccnc54)cn23)C1 (stereo partly drawn) [Example 86, (8S)—N-Methyl-N-({5-[methyl(1-methyl-3-pyrrolidinyl)amino]imidazo[1,2-a]pyridin-2-yl}methyl)-5,6,7,8-tetrahydro-8-quinolinamine] | < 100 |
| CN1CCC(N(C)c2cccc3nc(CN(C)[C@H]4CCCc5cccnc54)cn23)CC1 [Example 87, (8S)—N-Methyl-N-({5-[methyl(1-methyl-4-piperidinyl)amino]imidazo[1,2-a]pyridin-2-yl}methyl)-5,6,7,8-tetrahydro-8-quinolinamine] | < 100 |
| CCN1CCN(c2cccc3nc(CN(C)[C@H]4CCCc5cccnc54)cn23)CC1 [Example 88, (8S)—N-{[5-(4-Ethyl-1-piperazinyl)imidazo[1,2-a]pyridin-2-yl]methyl}-N-methyl-5,6,7,8-tetrahydro-8-quinolinamine] | < 100 |
| CC(C)N1CCN(c2cccc3nc(CN(C)[C@H]4CCCc5cccnc54)cn23)CC1 [Example 89, (8S)—N-Methyl-N-({5-[4-(1-methylethyl)-1-piperazinyl]imidazo[1,2-a]pyridin-2-yl}methyl)-5,6,7,8-tetrahydro-8-quinolinamine] | < 100 |
| CN(C)[C@H]1CCN(c2cccc3nc(CN(C)[C@H]4CCCc5cccnc54)cn23)C1 [Example 91, (8S)—N-({5-[(3S)-3-(Dimethylamino)-1-pyrrolidinyl]imidazo[1,2-a]pyridin-2-yl}methyl)-N-methyl-5,6,7,8-tetrahydro-8-quinolinamine] | < 100 |
| CN(Cc1cn2c(N3CC[C@@H](N)C3)cccc2n1)[C@H]1CCCc2cccnc21 [Example 92, (8S)—N-({5-[(3R)-3-Amino-1-pyrrolidinyl]imidazo[1,2-a]pyridin-2-yl}methyl)-N-methyl-5,6,7,8-tetrahydro-8-quinolinamine] | < 100 |
| CCN(CC)[C@@H]1CCN(c2cccc3nc(CN(C)[C@H]4CCCc5cccnc54)cn23)C1 [Example 93, (8S)—N-({5-[(3R)-3-(Diethylamino)-1-pyrrolidinyl]imidazo[1,2-a]pyridin-2-yl}methyl)-N-methyl-5,6,7,8-tetrahydro-8-quinolinamine] | < 100 |
| COc1ccc([C@H](C)N(Cc2cn3c(N4CC[C@@H](N(C)C)C4)cccc3n2)[C@H]2CCCc3cccnc32)cc1 [Example 95, (8S)—N-({5-[(3R)-3-(Dimethylamino)-1-pyrrolidinyl]imidazo[1,2-a]pyridin-2-yl}methyl)-N-{(1S)-1-[4-(methyloxy)phenyl]ethyl}-5,6,7,8-tetrahydro-8-quinolinamine] | 100 to 500 |
| CCN(Cc1cn2c(N3CC[C@@H](N(C)C)C3)cccc2n1)[C@H]1CCCc2cccnc21 [Example 96, (8S)—N-({5-[(3R)-3-(Dimethylamino)-1-pyrrolidinyl]imidazo[1,2-a]pyridin-2-yl}methyl)-N-ethyl-5,6,7,8-tetrahydro-8-quinolinamine] | < 100 |
| CCCN(Cc1cn2c(N3CC[C@@H](N(C)C)C3)cccc2n1)[C@H]1CCCc2cccnc21 [Example 97, (8S)—N-({5-[(3R)-3-(Dimethylamino)-1-pyrrolidinyl]imidazo[1,2-a]pyridin-2-yl}methyl)-N-propyl-5,6,7,8-tetrahydro-8-quinolinamine] | < 100 |
| CC(C)N(Cc1cn2c(N3CC[C@@H](N(C)C)C3)cccc2n1)[C@H]1CCCc2cccnc21 [Example 98, (8S)—N-({5-[(3R)-3-(Dimethylamino)-1-pyrrolidinyl]imidazo[1,2-a]pyridin-2-yl}methyl)-N-(1-methylethyl)-5,6,7,8-tetrahydro-8-quinolinamine] | < 100 |
| CN(C)[C@@H]1CCN(c2cccc3nc(CN(CC4CC4)[C@H]4CCCc5cccnc54)cn23)C1 [Example 99, (8S)—N-(Cyclopropylmethyl)-N-({5-[(3R)-3-(dimethylamino)-1-pyrrolidinyl]imidazo[1,2-a]pyridin-2-yl}methyl)-5,6,7,8-tetrahydro-8-quinolinamine] | < 100 |
| CC(c1cn2c(N3CCN(C)CC3)cccc2n1)N(C)[C@H]1CCCc2cccnc21 (stereo partly drawn) [Example 100, (8S)—N-Methyl-N-{1-[5-(4-methyl-1-piperazinyl)imidazo[1,2-a]pyridin-2-yl]ethyl}-5,6,7,8-tetrahydro-8-quinolinamine] | < 100 |
| CN(C)CCNc1cccc2nc(CN(C)[C@H]3CCCc4cccnc43)cn12 [Example 101, N,N-Dimethyl-N′-[2-({methyl[(8S)-5,6,7,8-tetrahydro-8-quinolinyl]amino}methyl)imidazo[1,2-a]pyridin-5-yl]-1,2-ethanediamine] | < 100 |
| CN(Cc1cn2c(NCCN3CCCC3)cccc2n1)[C@H]1CCCc2cccnc21 [Example 102, (8S)—N-Methyl-N-[(5-{[2-(1-pyrrolidinyl)ethyl]amino}imidazo[1,2-a]pyridin-2-yl)methyl]-5,6,7,8-tetrahydro-8-quinolinamine] | < 100 |
| CN(Cc1cn2c(NCCN3CCCCC3)cccc2n1)[C@H]1CCCc2cccnc21 [Example 103, (8S)—N-Methyl-N-[(5-{[2-(1-piperidinyl)ethyl]amino}imidazo[1,2-a]pyridin-2-yl)methyl]-5,6,7,8-tetrahydro-8-quinolinamine] | < 100 |
| CN(C)CCOc1cccc2nc(CN(C)[C@H]3CCCc4cccnc43)cn12 [Example 104, (8S)—N-[(5-{[2-(Dimethylamino)ethyl]oxy}imidazo[1,2-a]pyridin-2-yl)methyl]-N-methyl-5,6,7,8-tetrahydro-8-quinolinamine] | < 100 |
| CN(Cc1cn2c(OCCN3CCCC3)cccc2n1)[C@H]1CCCc2cccnc21 [Example 105, (8S)—N-Methyl-N-[(5-{[2-(1-pyrrolidinyl)ethyl]oxy}imidazo[1,2-a]pyridin-2-yl)methyl]-5,6,7,8-tetrahydro-8-quinolinamine] | < 100 |
| CN(Cc1cn2c(OCCN3CCCCC3)cccc2n1)[C@H]1CCCc2cccnc21 [Example 106, (8S)—N-Methyl-N-[(5-{[2-(1-piperidinyl)ethyl]oxy}imidazo[1,2-a]pyridin-2-yl)methyl]-5,6,7,8-tetrahydro-8-quinolinamine] | < 100 |
